# Data: patent US12697328B2, “Methods for treating metastasis with cathepsin C inhibitors” (Shanghai Institute of Nutrition and Health, Chinese Academy …, priority 2020, dated 2026)
# Columns and labels:
# membrane-bound PR3 = molecular target: T1, membrane-bound PR3 (Homo sapiens, UniProt P24158); assay: Membrane-bound PR3 activity of neutrophils cultured with CM of SCP28 cells overexpressing CTSC; assay type: cell-based; conditions: Sivelestat 10 μM, Alvelestat 10 μM, CTSGi 20 μM, FIG. 7D
# T1 construct: endogenous in cells; host or cells: human peripheral-blood neutrophils (whole-cell suspension)
# T1 sequence (P24158 28-248): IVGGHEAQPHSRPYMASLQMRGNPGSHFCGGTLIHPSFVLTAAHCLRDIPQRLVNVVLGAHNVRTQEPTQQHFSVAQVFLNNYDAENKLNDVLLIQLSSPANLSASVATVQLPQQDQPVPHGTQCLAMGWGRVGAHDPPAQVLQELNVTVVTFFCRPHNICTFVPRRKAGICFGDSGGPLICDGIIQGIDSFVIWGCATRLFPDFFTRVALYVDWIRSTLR
# Procedure: The procedure of enzyme activity assays were conducted as previously reported (Korkmaz et aL, “Neutrophil proteinase 3 and dipeptidyl peptidase I (cathepsin C) as pharmacological targets in granulomatosis with polyangiitis (Wegener granulomatosis),” Semin. Immunopathol. 35:411-421 (2008)). The PR3 or NE enzymatic activity was quantified by detecting the rate of hydrolysis of the PR3-specific substrate (Abz)-VADnorVADRQ-(EDDnp) or NE specific substrate (Abz)-APEEIMRRQ-(EDDnp) by cell suspension or free enzymes. To analyze membrane-bound PR3 activity, neutrophils were cultured in cancer cell CM or non-conditioned medium, and treated with DMSO or various inhibitors, including Sivelestat (10 μM), Alvelestat (10 μM) and CTSGi (20 μM) for 30-45 min at 37° C. Then, cells were suspended in activity buffer (5×10^6 per ml, PBS, 4 mM EGTA, pH 7.4) with 15 μM of the PR3-specific substrate, and the kinetic of hydrolysis was followed by measuring the fluorescence at λex=320 nm and λem=420 nm. For activation of PR3 in isolated plasma membrane fraction, recombinant human CTSC (1071-CY, R&D) was activated according to the manufacturer's instruction. […] The activity of free PR3 and NE were measured in the assay buffer (50 mM Tris, 750 mM NaCl, pH 7.4) with 15 μM specific substrates by recording the fluorescence at λex=320 nm and λem=420 nm. […]
# murine neutrophils = assay: In vitro NET analysis of neutrophils cultured in 4T07 or 4T1 conditioned media; assay type: cell-based; conditions: Sivelestat 10 μM or DNase I 1 μg/ml; FIG. 8F
# Procedure: To assess NET formation, neutrophils (2.5×10^5 cells) were seeded on coverslips coated with poly-L-lysine (P4707, Sigma) in 24-well plates for 30 min before adding 10% cancer cell CM, Sivelestat (10 μM), PMA (20 nM, Sigma), Cl-amidine (100 μM, Selleck) and/or DNase I (1 μg/ml). After 12 to 16 h at 37° C., neutrophils were fixed with 4% paraformaldehyde (PFA) for 10 min at room temperature, washed twice with PBS and permeabilized in 0.1% Triton X-100 for 5 min. […] NET area quantification was performed using the DANA method (Rebernick et al., “DNA area and NETosis analysis (DANA): a high-throughput method to quantify neutrophil extracellular traps in fluorescent microscope images,” Biol. Proced. Online 20:7 (2018)). Briefly, the areas of structures depicting NET morphology and positive for Ci-H3 or total H3 were counted as NETotic cell areas, and the NET area percentages were analyzed as NETotic cell areas divided by total DNA areas. The percentages of NETotic cells were analyzed as previously described ([…]). […] The percentage of NETotic cells was counted as the numbers of NETotic cells divided by the total cell numbers. […]
compound,measurement,setting,value
CC(C)(C)C(=O)Oc1ccc(S(=O)(=O)Nc2ccccc2C(=O)NCC(=O)O)cc1 [Silvelestat],upregulated PR3 activity resulting from CTSC overexpression,membrane-bound PR3,significantly reduces
same,NET formation induced by CTSC (percentage area covered by NETs),murine neutrophils,blocks the ability of CTSC to induce NET formation
